Test results published in ChEMBL document CHEMBL3797052 (Eur J Med Chem, 2016).

How the values were obtained:
[1] = Antiproliferative activity against human PC3 cells assessed as growth inhibition after 48 hrs by sulforhodamine B assay; type: functional; details: PC-3, 48 h
A549 = test: Antiproliferative activity against human A549/ATCC cells assessed as growth inhibition after 48 hrs by sulforhodamine B assay; type: functional; details: A549, 48 h; for CC50: read-out: LC50 (the source's name)
[2] = Antiproliferative activity against human MOLT4 cells assessed as growth inhibition after 48 hrs by sulforhodamine B assay; type: functional; details: MOLT-4, 48 h
[3] = Antiproliferative activity against human OVCAR4 cells assessed as growth inhibition after 48 hrs by sulforhodamine B assay; type: functional; details: OVCAR-4, 48 h; for CC50: read-out: LC50 (the source's name)
[4] = Antiproliferative activity against human OVCAR8 cells assessed as growth inhibition after 48 hrs by sulforhodamine B assay; type: functional; details: OVCAR-8, 48 h
NCI-H322M = test: Antiproliferative activity against human NCI-H322M cells assessed as growth inhibition after 48 hrs by sulforhodamine B assay; type: functional
NCI-H522 [5] = test: Antiproliferative activity against human NCI-H522 cells assessed as growth inhibition after 48 hrs by sulforhodamine B assay; type: functional; details: NCI-H522, 48 h
[6] = Antiproliferative activity against human PC3 cells assessed as cell growth at 10^-6 M after 48 hrs by sulforhodamine B assay; type: functional; details: PC-3, 48 h, read-out: Activity
[7] = Antiproliferative activity against human HOP62 cells assessed as cell growth at 10^-8 M after 48 hrs by sulforhodamine B assay; type: functional; details: HOP-62, 48 h, read-out: Activity
NCI-H23 = test: Antiproliferative activity against human NCI-H23 cells assessed as cell growth at 10^-7 M after 48 hrs by sulforhodamine B assay; type: functional; details: NCI-H23, 48 h, read-out: Activity
[8] = Antiproliferative activity against human HCT116 cells assessed as cell growth at 10^-8 M after 48 hrs by sulforhodamine B assay; type: functional; details: HCT-116, 48 h, read-out: Activity
[9] = Antiproliferative activity against human SF295 cells assessed as cell growth at 10^-6 M after 48 hrs by sulforhodamine B assay; type: functional; details: SF-295, 48 h, read-out: Activity
Malme-3M = test: Antiproliferative activity against human MALME-3M cells assessed as cell growth at 10^-8 M after 48 hrs by sulforhodamine B assay; type: functional; details: read-out: Activity
[10] = Antiproliferative activity against human HCT116 cells assessed as cell growth at 10^-7 M after 48 hrs by sulforhodamine B assay; type: functional; details: HCT-116, 48 h, read-out: Activity
MDA-MB-231 = test: Antiproliferative activity against human MDA-MB-231 cells assessed as cell growth at 10^-6 M after 48 hrs by sulforhodamine B assay; type: functional; details: MDA-MB-231, 48 h, read-out: Activity
[11] = Antiproliferative activity against human SF268 cells assessed as cell growth at 10^-6 M after 48 hrs by sulforhodamine B assay; type: functional; details: SF-268, 48 h, read-out: Activity
SK-MEL-28 = test: Antiproliferative activity against human SK-MEL-28 cells assessed as cell growth at 10^-4 M after 48 hrs by sulforhodamine B assay; type: functional; details: SK-MEL-28, 48 h, read-out: Activity
NCI-H522 [12] = test: Antiproliferative activity against human NCI-H522 cells assessed as cell growth at 10^-7 M after 48 hrs by sulforhodamine B assay; type: functional; details: NCI-H522, 48 h, read-out: Activity
[13] = Antiproliferative activity against human HOP62 cells assessed as cell growth at 10^-4 M after 48 hrs by sulforhodamine B assay; type: functional; details: HOP-62, 48 h, read-out: Activity
M14 = test: Antiproliferative activity against human M14 cells assessed as cell growth at 10^-4 M after 48 hrs by sulforhodamine B assay; type: functional; details: M14, 48 h, read-out: Activity
SR = test: Antiproliferative activity against human SR cells assessed as cell growth at 10^-4 M after 48 hrs by sulforhodamine B assay; type: functional; details: read-out: Activity
ACHN = test: Antiproliferative activity against human ACHN cells assessed as cell growth at 10^-6 M after 48 hrs by sulforhodamine B assay; type: functional; details: read-out: Activity
[14] = Antiproliferative activity against human Caki1 cells assessed as cell growth at 10^-8 M after 48 hrs by sulforhodamine B assay; type: functional; details: CAKI-1, 48 h, read-out: Activity
[15] = Antiproliferative activity against human SF539 cells assessed as cell growth at 10^-4 M after 48 hrs by sulforhodamine B assay; type: functional; details: SF-539, 48 h, read-out: Activity
CYP1A2 = molecular target: T1, CYP1A2 (Homo sapiens, UniProt P05177); test: Inhibition of recombinant human CYP1A2 assessed as remaining enzyme activity using CYP1A2 blue as substrate at 10 uM after 5 mins in presence of NADP by fluorescence plate reader analysis; type: ADME; details: recombinant human CYP1A2, probe CYP1A2 blue, read-out: Activity
T1 sequence (P05177 whole entry): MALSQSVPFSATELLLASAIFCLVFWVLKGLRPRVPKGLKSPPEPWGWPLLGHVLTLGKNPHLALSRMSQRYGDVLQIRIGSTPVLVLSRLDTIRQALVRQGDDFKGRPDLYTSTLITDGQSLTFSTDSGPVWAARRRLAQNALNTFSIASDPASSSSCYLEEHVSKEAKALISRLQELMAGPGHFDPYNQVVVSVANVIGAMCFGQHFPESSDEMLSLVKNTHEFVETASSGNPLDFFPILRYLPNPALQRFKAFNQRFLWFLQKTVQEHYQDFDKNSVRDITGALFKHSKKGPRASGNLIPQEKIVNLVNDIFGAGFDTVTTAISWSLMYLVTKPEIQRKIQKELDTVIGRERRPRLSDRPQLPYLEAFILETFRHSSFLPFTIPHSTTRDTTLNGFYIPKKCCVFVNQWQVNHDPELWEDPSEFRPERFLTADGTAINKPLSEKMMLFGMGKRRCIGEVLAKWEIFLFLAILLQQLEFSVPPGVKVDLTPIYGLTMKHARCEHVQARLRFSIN

[16] = Antiproliferative activity against human RXF393 cells assessed as cell growth at 10^-6 M after 48 hrs by sulforhodamine B assay; type: functional; details: RXF 393, 48 h, read-out: Activity
[17] = Antiproliferative activity against human SNB19 cells assessed as cell growth at 10^-6 M after 48 hrs by sulforhodamine B assay; type: functional; details: SNB-19, 48 h, read-out: Activity
[18] = Antiproliferative activity against human SNB19 cells assessed as cell growth at 10^-7 M after 48 hrs by sulforhodamine B assay; type: functional; details: SNB-19, 48 h, read-out: Activity
[19] = Antiproliferative activity against human HOP62 cells assessed as cell growth at 10^-7 M after 48 hrs by sulforhodamine B assay; type: functional; details: HOP-62, 48 h, read-out: Activity
[20] = Antiproliferative activity against human OVCAR4 cells assessed as cell growth at 10^-8 M after 48 hrs by sulforhodamine B assay; type: functional; details: OVCAR-4, 48 h, read-out: Activity

CNC(=O)c1cc(Oc2ccc(NC(=O)Nc3ccc(Cl)c(C(F)(F)F)c3)cc2)ccn1 [SORAFENIB]
GI50 [1]: 2 µM | TGI [1]: 7.94 µM | GI50 (A549): 3.16 µM | TGI (A549): 12.6 µM | CC50 (A549): 63.1 µM | GI50 [2]: 3.16 µM | TGI [2]: 100 µM | GI50 [3]: 3.16 µM | TGI [3]: 12.6 µM | CC50 [3]: 100 µM | GI50 [4]: 2.51 µM | TGI [4]: 10 µM | GI50 (NCI-H322M): 2.51 µM | TGI (NCI-H322M): 10 µM | GI50 (NCI-H522 [5]): 2 µM | TGI (NCI-H522 [5]): 6.31 µM

CNC(=O)c1cc(Oc2ccc3nc(NC(=O)Nc4cc(C(F)(F)F)cc(C(F)(F)F)c4)sc3c2)ccn1
GI50 [1]: 0.611 µM | LC50 [1]: 7.07 µM | TGI [1]: 2.29 µM | growth at 1 µM [6]: 37% | growth at 0.01 µM [7]: 85% | growth at 0.1 µM (NCI-H23): 95% | growth at 0.01 µM [8]: 102% | growth at 1 µM [9]: 55% | growth at 0.01 µM (Malme-3M): 96% | growth at 0.1 µM [10]: 105% | GI50 (A549): 1.3 µM | TGI (A549): 2.67 µM | CC50 (A549): 5.51 µM | growth at 1 µM (MDA-MB-231): 46% | growth at 1 µM [11]: 65% | growth at 100 µM (SK-MEL-28): -70% | growth at 0.1 µM (NCI-H522 [12]): 97% | GI50 [3]: 0.958 µM | TGI [3]: 2.73 µM | CC50 [3]: 7.58 µM | growth at 100 µM [13]: -76% | growth at 100 µM (M14): -73% | growth at 100 µM (SR): -53% | GI50 [4]: 1.33 µM | LC50 [4]: 5.47 µM | TGI [4]: 2.69 µM | growth at 1 µM (ACHN): 32% | growth at 0.01 µM [14]: 91% | growth at 100 µM [15]: -77% | activity at 5 min, 10 µM (CYP1A2): 110% | growth at 1 µM [16]: 63% | GI50 (NCI-H322M): 1.49 µM | TGI (NCI-H322M): 3.65 µM | growth at 1 µM [17]: 62% | growth at 0.1 µM [18]: 111% | GI50 (NCI-H522 [5]): 0.534 µM | LC50 (concentration killing 50% of cells) (NCI-H522 [5]): 8.1 µM | TGI (NCI-H522 [5]): 2.28 µM | growth at 0.1 µM [19]: 91% | growth at 0.01 µM [20]: 88%
